From patent publication US7459455B2, “Pyrimidine compounds” (SmithKline Beecham Corporation, priority 2002, dated 2008)

What was measured:
Recombinant GST-Tie2 = biological target: T1, Recombinant GST-Tie2 (Homo sapiens, UniProt Q02763); assay: Tie2 Fluorescence Polarization Kinase Activity Assay (TIE2-FP); assay type: biochemical; details: activated Tie2, 200 μM ATP
T1 construct: GST
Experimental: Tie2 Fluorescence Polarization Kinase Activity Assay: (TIE2-FP)
Activation of Recombinant Tie2 Activation:
Recombinant GST-Tie2 was activated by incubating the enzyme in 20 mM Tris-HCl, pH 7.5, 12 mM MgCl2, 100 mM NaCl, 20 μM sodium vanidate, 1 mM DT and 300 μM ATP at room temperature for 2 hours. The activation mixture was then passed through a NAP-25 desalting column (Pharmacia Biotech cat. no. 17-0852-O2) to remove the free ATP. The activated enzyme was stored as aliquots at −80° C. in 20 mM Tris-HCl, pH 7.5 and 100 mM NaCl.
The final assay conditions were 50 mM HEPES, pH 7.5, 5% DMSO (when screening compounds), 200 μM ATP, 5 mM MgCl2, 1 mM DTT, 50 μM sodium vanidate, 1 nM activated enzyme, and 200 μM peptide. IC50's of compounds were measured under subsaturating ATP (200 μM) and varing concentrations of activated Tie2 and peptide substrate (RFWKYEFWR-OH; MW 1873 Da, TFA salt). Panvera Anti-phosphotyrosine antibody (Cat#P2840) and PTK Green Tracer (Cat#P2842) were used to detect the phosphorylated peptide. Polarization was measured on a TECAN Polarion in 138-second cycles for 30 minutes at room temperature. IC50's were then determined from the % polarization using normal calculation methods.

[1] = tested on: Human umbilical cord endothelial cells (HUVEC); assay: VEGF-Driven Cellular Proliferation Assay: BrdU Incorporation Assay (VEGF-C); assay type: cell-based
Experimental: VEGF-Driven Cellular Proliferation Assay: BrdU Incorporation Assay (VEGF-C)
Human umbilical cord endothelial cells (HUVEC, Clonetics, CC2519) were passaged in Type I collagen-coated 100-mm petridishes in EGM-MV medium (Clonetics, CC3125) at 37 C in a humidified 5% CO2, 95% air incubator. (HUVEC passaged more than 6 times in vitro were discarded and not subjected to assaying.) The cells were harvested using trypsin/EDTA, counted using a haemocytometer and plated at 5000 cells/well in a Type I-collagen coated 96-well plate (Becton Dickinson, 354407) in M199 medium (Gibco BRL, 12340-030) containing 5% FBS (Hyclone, A 1115-L) and gentamicin (at 50 ug/ml, Gibco BRL). After incubation overnight at 37° C., the media were replaced with 100 ul of M199 serum-free medium containing compounds at various concentrations with 0.6% DMSO and gentamicin. The compounds were diluted in serum-free M199 medium from 10 mM stock solutions prepared in 100% DMSO. After a 30 min incubation at 37° C. the cells were fed with 100 ul of serum-free M199 medium containing gentamicin, 0.2% culture-grade bovine serum albumin (BSA, Sigma A1993) and 20 ng/ml of VEGF (R&D systems, 293-VE) or 0.6 ng/ml of basic FGF (R&D systems, 233-FB), and cultured at 37° C. for another 24 h. The cells were pulsed with bromodeoxyuridine (BrdU at 10 μM in serum-free M199) at 37° C. for an additional 24 h. The incorporation of BrdU into the proliferating HUVEC were analyzed using BrdU Cell Proliferation ELISA (Roche Molecular Biochemicals, 1647229) according to the manufacturer's protocols. The optical density at 450 nm was measured with a multilabel counter (ARVO SX, Wallac). The percent inhibition of cell growth was calculated relative to blank control wells. The concentration of test compound that inhibits 50% of cell growth (IC50) was interpolated using nonlinear regression (Levernberg-Marquardt) and the equation, γ=Vmax (1−x/(K+x))+Y2, where “K” was equal to the IC50. The IC50 values were converted to pIC50 values, i.e., −log IC50 in Molar concentration.

GST-VEGFR2 = biological target: T2, GST-VEGFR2 (Homo sapiens, UniProt P35968); assay: VEGF-R2 Enzyme Assay (VEGF-E), LANCE method; assay type: biochemical; details: GST-VEGFR2, 75 μM ATP, peptide phosphorylation
T2 construct: GST-VEGFR2, baculovirus expressed recombinant constructs of the intracellular domains of human TIE2 tagged by GST; made in house
Excerpt: VEGF-R2 Enzyme Assay VEGF-E)
The VEGF enzyme assay used the LANCE method (Wallac) and GST-VEGFR2, baculovirus expressed recombinant constructs of the intracellular domains of human TIE2 tagged by GST. The method measured the ability of the purified enzymes to catalyse the transfer of the γ-phosphate from ATP onto tyrosine residues in a biotinylated synthetic peptide, (biotin-aminohexyl-EEEEYFELVAKKKK-NH2). This peptide phosphorylation was detected using the following procedure: GST-VEGFR2 was incubated for 40-60 mins at room temperature with 75 μM ATP, 5 mM MgCl2, 0.1 mM DTT, 0.1 mg/mL BSA and the test compound (diluted from a 10 mM stock in DMSO for desired concentration) in 100 mM HEPES buffer. The reaction was stopped by the addition of EDTA (final concentration 50 mM). Streptavidin linked-APC (allophycocyanin, Molecular Probe) and Europium-labeled anti-phosphorylated tyrosile antibody (Wallac) were then added at the final concentration of 15 nM and 1 nM, respectively. The APC signal was measured using an ARVO multilabel counter (Wallac Berthold, Japan). The percent inhibition of activity was calculated relative to blank control wells. The concentration of test compound that inhibits 50% of activity (IC50) was interpolated using nonlinear regression (Levernberg-Marquardt) and the equation, γ=Vmax (1−x/(K+x))+Y2, where “K” was equal to the IC50. The IC50 values were converted to pIC50 values, i.e., −log IC50 in Molar concentration.

T1 sequence (Q02763 770-1124 limits assumed): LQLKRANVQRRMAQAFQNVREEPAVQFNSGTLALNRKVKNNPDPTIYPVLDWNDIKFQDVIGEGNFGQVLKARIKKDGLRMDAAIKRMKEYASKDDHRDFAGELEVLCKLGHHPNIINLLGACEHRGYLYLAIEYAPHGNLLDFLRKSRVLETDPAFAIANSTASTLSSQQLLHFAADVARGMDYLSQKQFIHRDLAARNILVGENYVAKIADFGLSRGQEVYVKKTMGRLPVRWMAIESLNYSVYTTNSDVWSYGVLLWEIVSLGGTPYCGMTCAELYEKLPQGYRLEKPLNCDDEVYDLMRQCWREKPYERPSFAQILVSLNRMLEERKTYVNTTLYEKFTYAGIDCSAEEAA
T2 sequence (P35968 786-1356 limits assumed): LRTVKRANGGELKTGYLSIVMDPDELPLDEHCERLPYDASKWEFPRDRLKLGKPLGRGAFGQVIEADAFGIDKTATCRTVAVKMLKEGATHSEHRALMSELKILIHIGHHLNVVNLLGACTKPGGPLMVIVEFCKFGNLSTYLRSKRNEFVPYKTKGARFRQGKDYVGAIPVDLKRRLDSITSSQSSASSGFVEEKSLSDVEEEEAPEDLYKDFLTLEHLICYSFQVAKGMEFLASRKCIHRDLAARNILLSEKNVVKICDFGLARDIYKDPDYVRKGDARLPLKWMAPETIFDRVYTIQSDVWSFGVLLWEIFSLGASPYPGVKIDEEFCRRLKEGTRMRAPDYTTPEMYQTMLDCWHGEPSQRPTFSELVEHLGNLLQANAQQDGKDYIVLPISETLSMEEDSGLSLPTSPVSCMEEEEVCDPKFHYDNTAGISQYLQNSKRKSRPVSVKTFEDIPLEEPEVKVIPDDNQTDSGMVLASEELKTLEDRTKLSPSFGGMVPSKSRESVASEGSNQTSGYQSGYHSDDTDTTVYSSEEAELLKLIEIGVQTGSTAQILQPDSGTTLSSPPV

Row | IC50 (Recombinant GST-Tie2) [nM] | IC50 (GST-VEGFR2) [nM] | SMILES | IC50 [1] [nM]
1 | < 100 | < 100 | CCS(=O)(=O)c1ccc(OC)c(Nc2nccc(N(C)c3ccc(NC(=O)Nc4cccc(F)c4)cc3)n2)c1 [Example 18, N-{4-[(2-{[5-(Ethylsulfonyl)-2-methoxyphenyl]amino}pyrimidin-4-yl)(methyl)amino]phenyl}-N′-(3-fluorophenyl)urea] | < 100
2 | < 100 | < 100 | CCc1cccc(NC(=O)Nc2ccc(N(C)c3ccnc(Nc4ccc(S(N)(=O)=O)cc4)n3)cc2)c1 [Example 20, 4-({4-[[4-({[(3-ethylphenyl)amino]carbonyl}amino)phenyl](methyl)amino]pyrimidin-2-yl}amino)benzenesulfonamide] | < 100
3 | < 100 | < 100 | CN(c1ccc(NC(=O)Nc2ccc(OC(F)(F)F)cc2)cc1)c1ccnc(Nc2ccc(S(N)(=O)=O)cc2)n1 [Example 21, 4-{[4-(methyl{4-[({[4-(trifluoromethoxy)phenyl]amino}carbonyl)amino]phenyl}amino)pyrimidin-2-yl]amino}benzenesulfonamide] | < 100
